Laboratory results as given in US8486921B2, “Synthesis of tetracyclines and analogues thereof” (President and Fellows of Harvard College, priority 2006, dated 2013).

Tested on: Gram-positive strains
Assay: Whole-cell antibacterial MIC assay (NCCLS serial dilution), Gram-positive strains
Type: cell-based
Conditions: each of the Gram-positive strains examined, including strains with resistance to tetracycline, methicillin, and vancomycin
Experimental: The efficiencies of the synthetic sequences have allowed for the preparation of sufficient quantities of each tetracycline analog for antibacterial testing using standard serial-dilution techniques (5-20 mg amounts). Minimum inhibitory concentrations (MICs) are reported for each analog in whole-cell antimicrobial assays using five Gram-positive and five Gram-negative organisms (FIG. 18).
Whole-cell antibacterial activity was determined according to methods recommended by the NCCLS-(National Committee for Clinical Laboratory Standards. 2002. Methods for dilution antimicrobial susceptibility tests for bacteria that grow aerobically: approved standard-fifth edition. NCCLS document M100-S12. National Committee for Clinical Laboratory Standards. Wayne, Pa.; incorporated herein by reference). Test compounds were dissolved in dimethyl sulfoxide (DMSO) and the resulting solutions were diluted in water (1:10) to produce stock solutions with a final concentration of 256 μg tetracycline analog per mL. In a 96-well microtiter plate, 50-μL aliquots of stock solutions were diluted serially into cation-adjusted Mueller-Hinton broth (MHB; Becton-Dickinson, Cockeysville, Md.). Test organisms (50 μL aliquots of solutions […]) were then added to the appropriate wells of the microtiter plate. […] The MIC was the lowest concentration of compound determined to inhibit visible growth. […]

CN(C)[C@@H]1C(O)=C(C(N)=O)C(=O)[C@@]2(O)C(O)=C3C(=O)c4c(cc5ccccc5c4O)C[C@H]3C[C@@H]12 [compound 6]
antibacterial activity (MIC) compared with tetracycline: activity equal to or greater than tetracycline
